The target in assay [1] is T1, Alpha-1D adrenergic receptor (Homo sapiens, UniProt P25100).
T1 sequence (P25100 whole entry): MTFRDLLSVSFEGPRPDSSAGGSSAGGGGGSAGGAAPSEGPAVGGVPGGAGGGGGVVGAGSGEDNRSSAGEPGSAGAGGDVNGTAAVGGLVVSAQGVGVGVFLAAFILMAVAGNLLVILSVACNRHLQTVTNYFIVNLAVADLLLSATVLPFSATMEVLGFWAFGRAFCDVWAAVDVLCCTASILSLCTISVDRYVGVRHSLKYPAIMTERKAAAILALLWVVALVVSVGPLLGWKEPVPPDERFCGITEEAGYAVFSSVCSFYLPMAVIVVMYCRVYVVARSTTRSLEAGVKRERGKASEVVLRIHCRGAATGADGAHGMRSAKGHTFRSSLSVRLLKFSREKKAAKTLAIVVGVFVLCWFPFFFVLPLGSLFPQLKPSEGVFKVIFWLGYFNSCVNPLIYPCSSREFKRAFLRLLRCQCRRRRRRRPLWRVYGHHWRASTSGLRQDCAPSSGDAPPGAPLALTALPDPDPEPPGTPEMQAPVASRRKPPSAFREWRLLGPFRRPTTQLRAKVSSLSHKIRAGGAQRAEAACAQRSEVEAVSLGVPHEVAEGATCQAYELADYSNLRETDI
Description: Binding affinity to human cloned adrenergic alpha-1d receptor.

The target in a further assay is D(2) dopamine receptor (Homo sapiens, UniProt P14416). Kind of assay: Binding affinity for dopamine D2 receptor.
D(2) dopamine receptor, sequence (P14416 whole entry): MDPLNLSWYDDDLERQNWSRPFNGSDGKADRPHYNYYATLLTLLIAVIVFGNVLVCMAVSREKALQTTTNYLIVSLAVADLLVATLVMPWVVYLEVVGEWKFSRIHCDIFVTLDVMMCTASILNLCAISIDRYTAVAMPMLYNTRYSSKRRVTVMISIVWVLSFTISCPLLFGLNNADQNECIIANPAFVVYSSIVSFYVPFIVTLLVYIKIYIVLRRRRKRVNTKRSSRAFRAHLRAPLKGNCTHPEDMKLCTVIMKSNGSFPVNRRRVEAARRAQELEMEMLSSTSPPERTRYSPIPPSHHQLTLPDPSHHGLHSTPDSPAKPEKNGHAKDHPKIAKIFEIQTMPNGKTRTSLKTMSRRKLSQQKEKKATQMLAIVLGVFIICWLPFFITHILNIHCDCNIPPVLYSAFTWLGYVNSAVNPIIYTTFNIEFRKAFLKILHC
Assay [2] concerns the target T2, Alpha-1A adrenergic receptor (Homo sapiens, UniProt P35348).
T2 sequence (P35348 whole entry): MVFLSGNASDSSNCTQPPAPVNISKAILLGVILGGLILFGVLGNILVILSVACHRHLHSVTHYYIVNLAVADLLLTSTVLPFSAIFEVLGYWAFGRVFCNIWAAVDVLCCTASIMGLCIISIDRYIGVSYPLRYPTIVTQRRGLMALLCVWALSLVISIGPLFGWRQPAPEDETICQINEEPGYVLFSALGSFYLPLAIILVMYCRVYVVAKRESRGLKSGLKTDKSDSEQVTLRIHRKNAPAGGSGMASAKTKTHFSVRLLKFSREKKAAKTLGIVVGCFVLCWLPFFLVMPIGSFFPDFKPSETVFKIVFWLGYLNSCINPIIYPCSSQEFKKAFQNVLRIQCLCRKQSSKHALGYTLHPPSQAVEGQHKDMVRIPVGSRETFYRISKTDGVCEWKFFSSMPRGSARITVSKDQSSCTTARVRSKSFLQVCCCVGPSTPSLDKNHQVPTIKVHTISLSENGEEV
Kind of assay: Binding affinity to human cloned adrenergic alpha-1a receptor.

Assay [3] addresses T3, Alpha-1B adrenergic receptor (Homo sapiens, UniProt P35368).
T3 sequence (P35368 whole entry): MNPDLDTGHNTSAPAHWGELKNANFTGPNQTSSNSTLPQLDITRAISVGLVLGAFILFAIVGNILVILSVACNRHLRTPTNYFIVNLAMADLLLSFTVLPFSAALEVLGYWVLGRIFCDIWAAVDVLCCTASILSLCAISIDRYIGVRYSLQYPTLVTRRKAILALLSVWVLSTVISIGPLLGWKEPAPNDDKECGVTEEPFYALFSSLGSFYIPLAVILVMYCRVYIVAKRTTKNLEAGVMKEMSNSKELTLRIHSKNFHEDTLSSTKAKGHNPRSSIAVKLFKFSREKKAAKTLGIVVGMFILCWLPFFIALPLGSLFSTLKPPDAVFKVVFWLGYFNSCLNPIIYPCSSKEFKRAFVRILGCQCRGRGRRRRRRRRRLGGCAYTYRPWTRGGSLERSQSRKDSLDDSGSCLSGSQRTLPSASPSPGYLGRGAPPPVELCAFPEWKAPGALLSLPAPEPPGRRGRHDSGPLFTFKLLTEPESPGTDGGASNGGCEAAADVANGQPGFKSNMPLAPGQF
Kind of assay: Binding affinity to human cloned adrenergic alpha-1b receptor.

Molecules are shown by their SMILES.

A word on the Ki: it is the dissociation constant of the complex between target and ligand, obtained from inhibition or displacement. Lower therefore signals tighter binding.

Turning to `COc1ccc(S(=O)(=O)N[C@H]2CC[C@H](N3CCC(c4ccccc4OC4CC4)CC3)CC2)cc1OC`, the inhibition constant Ki is 34 nM in assay [1], 133 nM on D(2) dopamine receptor and 11 nM in assay [2].

Take `COc1ccc(Cl)cc1S(=O)(=O)N[C@H]1CC[C@H](N2CCC(c3ccccc3OC3CC3)CC2)CC1`: the Ki on D(2) dopamine receptor is 154 nM.

As to `O=S(=O)(N[C@H]1CC[C@@H](N2CCC(c3ccccc3OC3CC3)CC2)CC1)c1cc(Cl)ccc1F`, affinity on D(2) dopamine receptor was put at a Ki of 187 nM. This Ki and that of the molecule before are within 1.5-fold of each other.

Molecule `O=S(=O)(N[C@H]1CC[C@H](N2CCC(c3ccccc3OC3CC3)CC2)CC1)c1cc(Cl)ccc1F` yielded a Ki at D(2) dopamine receptor of 159 nM.

Molecule `O=S(=O)(N[C@H]1CC[C@H](N2CCC(c3ccccc3OC3CC3)CC2)CC1)c1ccc2c(c1)OCO2` had a Ki on D(2) dopamine receptor of 71 nM.

Regarding `COc1ccc(S(=O)(=O)N[C@H]2CC[C@@H](N3CCC(c4ccccc4OCC(F)(F)F)CC3)CC2)cc1OC`, the Ki was found to be 2.2 nM in assay [1], 111 nM at D(2) dopamine receptor, 1.8 nM in assay [2] and 123 nM in assay [3].

Consider `COc1ccc(S(=O)(=O)N[C@H]2CC[C@H](N3CCC(c4ccccc4OCC(F)(F)F)CC3)CC2)cc1OC`, for which the Ki was found to be 23 nM in assay [1], 83 nM on D(2) dopamine receptor, 21 nM in assay [2] and 368 nM in assay [3].

As for `O=S(=O)(N[C@H]1CC[C@H](N2CCC(c3ccccc3OCC(F)(F)F)CC2)CC1)c1ccc2c(c1)OCCO2`, the Ki at D(2) dopamine receptor came to 23 nM; in assay [3], 91 nM.

Take `O=S(=O)(N[C@H]1CC[C@@H](N2CCC(c3ccccc3OCC(F)(F)F)CC2)CC1)c1cc(Cl)ccc1F`: the figures for the Ki (at D(2) dopamine receptor; in assay [2]) were 78 nM and 5.9 nM, respectively.

Turning to `O=S(=O)(N[C@H]1CC[C@H](N2CCC(c3ccccc3OCC(F)(F)F)CC2)CC1)c1cc(Cl)ccc1F`, the Ki at D(2) dopamine receptor amounted to 37 nM; in assay [2], 4.8 nM.

The molecule `O=S(=O)(N[C@H]1CC[C@@H](N2CCC(c3ccccc3OCC(F)(F)F)CC2)CC1)c1cccc(OC(F)F)c1` had a Ki at D(2) dopamine receptor of 85 nM.

As for `O=S(=O)(N[C@H]1CC[C@H](N2CCC(c3ccccc3OCC(F)(F)F)CC2)CC1)c1cccc(OC(F)F)c1`, at D(2) dopamine receptor, the Ki was 129 nM. Against the preceding molecule, the Ki is about 1.5-fold higher.

Regarding `O=S(=O)(N[C@H]1CC[C@H](N2CCC(c3ccccc3OCC(F)(F)F)CC2)CC1)c1ccc(OC(F)F)cc1`, the Ki on D(2) dopamine receptor came to 104 nM; in assay [2] it was 38 nM.

`COc1ccc(S(=O)(=O)N[C@H]2CC[C@H](N3CCC(c4ccccc4OCCF)CC3)CC2)cc1OC`: affinity at D(2) dopamine receptor was put at a Ki of 284 nM. This counts as sub-micromolar.

`COc1ccc(S(=O)(=O)N[C@H]2CC[C@H](N3CCC(c4ccccc4OCC(F)F)CC3)CC2)cc1OC`: the Ki at D(2) dopamine receptor amounted to 88 nM; in assay [2], 31 nM.

On to `COc1ccc(S(=O)(=O)N[C@H]2CC[C@@H](N3CCC(c4ccc(F)cc4OC(C)C)CC3)CC2)cc1OC`, for which the Ki worked out at 12 nM in assay [1] and 106 nM on D(2) dopamine receptor.

In the case of `COc1ccc(S(=O)(=O)N[C@H]2CC[C@H](N3CCC(c4ccc(F)cc4OC(C)C)CC3)CC2)cc1OC`, at D(2) dopamine receptor, the Ki amounted to 104 nM.

`COc1ccc(S(=O)(=O)N[C@H]2CC[C@@H](N3CCC(c4cc(F)ccc4OC(C)C)CC3)CC2)cc1OC` showed a Ki at D(2) dopamine receptor of 178 nM. This Ki lies about 1.7-fold higher than the previous one.

Consider `CC(C)Oc1ccccc1C1CCN([C@H]2CC[C@H](NS(=O)(=O)c3ccc(F)c(F)c3)CC2)CC1`, for which the Ki in assay [1] was 87 nM; at D(2) dopamine receptor, 79 nM; in assay [2], 1.4 nM; in assay [3], 1380 nM.

On D(2) dopamine receptor, `COc1ccc(S(=O)(=O)N[C@H]2CC[C@@H](N3CCC(c4ccccc4OC4CC4)CC3)CC2)cc1OC` registered a Ki of 144 nM.

Take `O=S(=O)(N[C@H]1CC[C@@H](N2CCC(c3ccccc3OCC(F)(F)F)CC2)CC1)c1ccc(OC(F)F)cc1`: at D(2) dopamine receptor, affinity was put at a Ki of 154 nM.

At D(2) dopamine receptor, `COc1ccc(S(=O)(=O)N[C@H]2CC[C@@H](N3CCC(c4ccccc4OCC(F)F)CC3)CC2)cc1OC` displayed a Ki of 276 nM.

On D(2) dopamine receptor, `COc1ccc(S(=O)(=O)N[C@H]2CC[C@H](N3CCC(c4ccccc4OC(C)C)CC3)CC2)cc1OC` gave a Ki of 55 nM.

In turn, `COc1ccc(Cl)cc1S(=O)(=O)N[C@H]1CC[C@@H](N2CCC(c3ccccc3OC3CC3)CC2)CC1` came in with a Ki at D(2) dopamine receptor of 129 nM.

For the molecule `O=S(=O)(N[C@H]1CC[C@@H](N2CCC(c3ccccc3OC3CC3)CC2)CC1)c1ccc2c(c1)OCO2`, the Ki on D(2) dopamine receptor stood at 66 nM; in assay [2] it was 16 nM.

On to `COc1ccc(S(=O)(=O)N[C@H]2CC[C@@H](N3CCC(c4ccccc4OC(C)C)CC3)CC2)cc1OC`, for which the figures for the Ki (in assay [1]; at D(2) dopamine receptor; in assay [2]) were 0.77 nM, 144 nM and 2.2 nM, respectively.

On D(2) dopamine receptor, `CC(C)Oc1ccccc1C1CCN([C@H]2CC[C@@H](NS(=O)(=O)c3ccc(F)c(F)c3)CC2)CC1` returned a Ki of 79 nM. This counts as double-digit nanomolar.

Take `COc1ccc(Cl)cc1S(=O)(=O)N[C@H]1CC[C@H](N2CCC(c3ccccc3OCC(F)(F)F)CC2)CC1`: the Ki stood at 82 nM on D(2) dopamine receptor and 10 nM in assay [2].

In turn, `COc1ccc(S(=O)(=O)N[C@H]2CC[C@H](N3CCC(c4cc(F)ccc4OC(C)C)CC3)CC2)cc1OC` returned a Ki on D(2) dopamine receptor of 94 nM.

Molecule `O=S(=O)(N[C@H]1CC[C@@H](N2CCC(c3ccccc3OCC(F)(F)F)CC2)CC1)c1ccc2c(c1)OCCO2` came in with a Ki at D(2) dopamine receptor of 57 nM.

Regarding `COc1ccc(Cl)cc1S(=O)(=O)N[C@H]1CC[C@@H](N2CCC(c3ccccc3OCC(F)(F)F)CC2)CC1`, the Ki stood at 1.6 nM in assay [1] and 69 nM at D(2) dopamine receptor.

With `COc1ccc(S(=O)(=O)N[C@H]2CC[C@@H](N3CCC(c4ccccc4OCCF)CC3)CC2)cc1OC`, the Ki was determined as 5.5 nM in assay [1], 201 nM on D(2) dopamine receptor, 8.5 nM in assay [2] and 401 nM in assay [3].

Values taken from ChEMBL document CHEMBL1145372, “(Phenylpiperidinyl)cyclohexylsulfonamides: development of alpha1a/1d-selective adrenergic receptor antagonists for the treatment of benign prostatic hyperplasia/lower urinary tract symptoms (BPH/LUTS)” (Bioorg Med Chem Lett, 2007).
